# Source: ChEMBL document CHEMBL1128777, “Inhibition of metalloproteinase by futoenone derivatives” (Bioorg Med Chem Lett, 1995)
# How the values were obtained:
# [1] = molecular target: T1, Interstitial collagenase (Homo sapiens) (UniProt P03956); assay: Inhibition of human recombinant interstitial collagenase MMP-1 at 10 uM
# T1 sequence (whole entry): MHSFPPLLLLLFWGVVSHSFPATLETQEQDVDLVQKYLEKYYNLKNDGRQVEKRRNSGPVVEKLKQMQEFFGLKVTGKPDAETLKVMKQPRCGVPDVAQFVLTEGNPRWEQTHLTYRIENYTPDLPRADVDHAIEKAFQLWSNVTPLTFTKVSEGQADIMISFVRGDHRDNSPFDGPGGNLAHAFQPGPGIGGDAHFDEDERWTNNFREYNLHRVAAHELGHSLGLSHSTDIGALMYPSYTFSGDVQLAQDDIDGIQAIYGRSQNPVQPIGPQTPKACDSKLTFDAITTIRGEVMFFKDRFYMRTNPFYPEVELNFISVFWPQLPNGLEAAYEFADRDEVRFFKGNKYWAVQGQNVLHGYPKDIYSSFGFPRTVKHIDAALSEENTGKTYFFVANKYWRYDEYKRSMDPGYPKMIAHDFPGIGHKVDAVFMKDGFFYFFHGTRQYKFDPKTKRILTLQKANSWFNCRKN
# Stromelysin-1 [2] = molecular target: T2, Stromelysin-1 (Homo sapiens, UniProt P08254); assay: (§1) Inhibition of human recombinant matrix metalloprotease-3 (Stromelysin) at 10 uM
# Target sequence in this assay (P08254 whole entry): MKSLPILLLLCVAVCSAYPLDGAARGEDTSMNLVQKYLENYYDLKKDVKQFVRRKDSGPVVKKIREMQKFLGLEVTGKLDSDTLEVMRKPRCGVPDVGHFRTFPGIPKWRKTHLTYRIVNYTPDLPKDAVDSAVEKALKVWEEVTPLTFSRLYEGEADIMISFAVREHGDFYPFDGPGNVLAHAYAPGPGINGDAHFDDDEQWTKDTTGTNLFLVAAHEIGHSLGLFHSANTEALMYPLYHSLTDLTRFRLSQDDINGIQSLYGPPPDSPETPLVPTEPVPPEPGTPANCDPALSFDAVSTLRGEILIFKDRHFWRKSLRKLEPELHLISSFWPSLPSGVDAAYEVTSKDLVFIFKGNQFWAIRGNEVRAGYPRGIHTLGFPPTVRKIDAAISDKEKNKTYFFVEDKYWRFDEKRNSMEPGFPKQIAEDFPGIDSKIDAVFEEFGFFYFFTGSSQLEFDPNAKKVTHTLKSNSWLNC
# [3] = molecular target: Matrix metalloproteinase-9 (Homo sapiens) (UniProt P14780); assay: Inhibition of human recombinant 92 kDa gelatinase MMP-9 at 10 uM
# Matrix metalloproteinase-9 (Homo sapiens), sequence (P14780 whole entry): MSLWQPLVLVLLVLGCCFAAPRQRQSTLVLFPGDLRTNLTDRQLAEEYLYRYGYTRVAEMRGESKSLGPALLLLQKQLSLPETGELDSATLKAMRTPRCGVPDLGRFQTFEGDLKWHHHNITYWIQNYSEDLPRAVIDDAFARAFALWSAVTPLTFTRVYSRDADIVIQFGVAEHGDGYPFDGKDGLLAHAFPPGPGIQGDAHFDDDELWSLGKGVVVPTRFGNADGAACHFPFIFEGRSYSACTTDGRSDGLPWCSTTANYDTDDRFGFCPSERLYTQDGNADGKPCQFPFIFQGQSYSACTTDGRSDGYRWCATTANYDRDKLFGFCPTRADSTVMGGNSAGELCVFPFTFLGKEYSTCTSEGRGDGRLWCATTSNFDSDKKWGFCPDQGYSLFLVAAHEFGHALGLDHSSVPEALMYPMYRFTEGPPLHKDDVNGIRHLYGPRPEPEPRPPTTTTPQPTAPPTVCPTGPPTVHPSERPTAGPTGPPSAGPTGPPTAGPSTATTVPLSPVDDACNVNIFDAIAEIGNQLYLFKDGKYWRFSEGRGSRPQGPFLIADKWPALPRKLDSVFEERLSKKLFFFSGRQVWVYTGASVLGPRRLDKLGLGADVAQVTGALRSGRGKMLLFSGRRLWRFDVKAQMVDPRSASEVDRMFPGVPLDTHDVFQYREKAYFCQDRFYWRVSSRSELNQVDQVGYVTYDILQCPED
# Stromelysin-1 [4] = molecular target: T2, Stromelysin-1; assay: as §1; remark: listed apart in the source
# Target sequence in this assay (P08254 100-477 limits assumed): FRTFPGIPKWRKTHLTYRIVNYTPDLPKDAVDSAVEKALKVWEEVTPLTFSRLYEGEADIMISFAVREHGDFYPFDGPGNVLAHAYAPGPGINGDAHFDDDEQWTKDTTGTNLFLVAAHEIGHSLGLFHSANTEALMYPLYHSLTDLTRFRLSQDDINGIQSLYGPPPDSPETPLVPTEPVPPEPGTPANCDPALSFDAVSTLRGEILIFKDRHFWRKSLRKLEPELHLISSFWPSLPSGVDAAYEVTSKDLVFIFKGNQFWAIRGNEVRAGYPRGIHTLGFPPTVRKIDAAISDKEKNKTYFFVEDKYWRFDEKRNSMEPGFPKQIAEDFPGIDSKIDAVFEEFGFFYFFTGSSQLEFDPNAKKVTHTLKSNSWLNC
# Stromelysin-1 [5] = molecular target: T2, Stromelysin-1; assay: Inhibition of human recombinant matrix metalloprotease-3 (Stromelysin) at 100 uM
# Target sequence in this assay (P08254 whole entry): as the sequence (P08254 whole entry) above
inhibition [1] [%],IC50 (Stromelysin-1 [2]) [nM],inhibition [3] [%],inhibition (Stromelysin-1 [4]) [%],IC50 (Stromelysin-1 [5]) [nM],Compound
0,,0,34,,COc1cc2c(cc1O)O[C@@H](C[C@H](c1ccc3c(c1)OCO3)C(C)O)C2 (stereo not given in full)
75,600,44,98,,COc1cc2c(cc1S)O[C@@H](C[C@H](c1ccc3c(c1)OCO3)C(C)O)C2 (stereo not given in full)
0,,0,36,,C=CCc1c(O)c(OC)cc2c1O[C@@H](C[C@H](c1ccc3c(c1)OCO3)C(C)O)C2 (stereo not given in full)

# The remaining lines, values behind:
Compound,inhibition [1] [%],IC50 (Stromelysin-1 [2]) [nM],inhibition [3] [%],inhibition (Stromelysin-1 [4]) [%],IC50 (Stromelysin-1 [5]) [nM]
COC1=C[C@]23C[C@H](C[C@H](c4ccc5c(c4)OCO5)[C@H]2C)OC3=CC1=O [FUTOENONE],16,< 1000,0,35,
CNC(=O)[C@H](Cc1c[nH]c2ccccc12)NC(=O)[C@@H](CC(=O)NO)CC(C)C [ILOMASTAT],100,,100,100,28
COC1=C[C@]23C[C@H](C[C@H](c4ccc5c(c4)OCO5)[C@H]2C)OC3=C(Br)C1=O,0,,22,38,
COC1=C[C@]23C[C@H](C[C@H](c4cc5c(cc4Br)OCO5)[C@H]2C)OC3=C(Br)C1=O,0,,0,38,
COc1cc2c(cc1SC(C)=O)O[C@@H](C[C@H](c1ccc3c(c1)OCO3)C(C)OC(C)=O)C2 (stereo not given in full),23,,8,58,
COC1=C[C@]23C[C@H](C[C@H](c4ccc5c(c4)OCO5)[C@H]2C)OC3=CC1=S,0,,0,42,
